Read-outs that look alike come from different tables or passages of the source.
What was measured:
Type in all cases: biochemical
kinases [1] = target: kinases (Homo sapiens, UniProt Q9NR20); details: DYRK4 FRET-Z-Lyte SP; Test Conc(μM):ATP Conc(μM) 1:5
kinases [2] = target: kinases (Homo sapiens, UniProt Q9UBE8); details: NLK FRET-Lantha SP; Test Conc(μM) 1
kinases [3] = target: kinases (Homo sapiens, UniProt P05771); details: PRKCB1 (PKC beta I) Z-Lyte SP; Test Conc(μM):ATP Conc(μM) 1:200
kinases [4] = target: kinases (Homo sapiens, UniProt Q52WX2); details: SBK1 FRET-Z-Lyte SP; Test Conc(μM):ATP Conc(μM) 1:5
kinases [5] = target: kinases (Homo sapiens, UniProt Q13163); details: MAP2K5 (MEK5) FRET-Lantha SP; Test Conc(μM) 1
kinases [6] = target: kinases (Homo sapiens, UniProt P17948); details: FLT1 (VEGFR1) *Mn* Z-Lyte SP; Test Conc(μM):ATP Conc(μM) 1:150
kinases [7] = target: kinases (Homo sapiens, UniProt Q86SG6); details: NEK8 FRET-Lantha SP; Test Conc(μM) 1
kinases [8] = target: kinases (Homo sapiens, UniProt P49336); details: CDK8/cyclin C FRET-Lantha SP; Test Conc(μM) 1
kinases [9] = target: kinases (Homo sapiens, UniProt Q16512); details: PKN1 (PRK1) FRET-Z-Lyte SP; Test Conc(μM):ATP Conc(μM) 1:50
kinases [10] = target: kinases (Homo sapiens, UniProt P42680); details: TEC FRET-Lantha SP; Test Conc(μM) 1
kinases [11] = target: kinases (Homo sapiens, UniProt Q86Z02); details: HIPK1 (Myak) FRET-Z-Lyte SP; Test Conc(μM):ATP Conc(μM) 1:5
kinases [12] = target: kinases (Homo sapiens, UniProt Q9P1W9); details: PIM2 FRET-Z-Lyte SP; Test Conc(μM):ATP Conc(μM) 1:5
kinases [13] = target: kinases (Homo sapiens, UniProt Q15375); details: EPHA7 FRET-Lantha SP; Test Conc(μM) 1
kinases [14] = target: kinases (Homo sapiens, UniProt Q9UIK4); details: DAPK2 FRET-Lantha SP; Test Conc(μM) 1
kinases [15] = target: kinases (Homo sapiens, UniProt O75385); details: ULK1 FRET-Lantha SP; Test Conc(μM) 1
kinases [16] = target: kinases (Homo sapiens, UniProt P07949); details: RET Hu Phos FRET-Z-Lyte SP; Test Conc(μM):ATP Conc(μM) 1:10
kinases [17] = target: kinases (Homo sapiens, UniProt Q13043); details: STK4 (MST1) FRET-Z-Lyte SP; Test Conc(μM):ATP Conc(μM) 1:50
kinases [18] = target: kinases (Homo sapiens, UniProt Q9P289); details: MST4 FRET-Z-Lyte SP; Test Conc(μM):ATP Conc(μM) 1:25
kinases [19] = target: kinases (Homo sapiens, UniProt Q5S007)
kinases [20] = target: kinases (Homo sapiens, UniProt Q15349); details: RPS6KA2 (RSK3) FRET-Z-Lyte SP; Test Conc(μM):ATP Conc(μM) 1:10
kinases [21] = target: kinases (Homo sapiens, UniProt P34947); details: GRK5 *Mn* FRET-Z-Lyte SP; Test Conc(μM):ATP Conc(μM) 1:5
kinases [22] = target: kinases (Homo sapiens, UniProt Q9H2X6); details: HIPK2 FRET-Z-Lyte SP; Test Conc(μM):ATP Conc(μM) 1:10
kinases [23] = target: kinases (Homo sapiens, UniProt Q09013); details: DMPK FRET-Lantha SP; Test Conc(μM) 1
kinases [24] = target: kinases (Homo sapiens, UniProt P45983)
kinases [25] = target: kinases (Homo sapiens, UniProt Q13177); details: PAK2 (PAK65) FRET-Z-Lyte SP; Test Conc(μM):ATP Conc(μM) 1:75
kinases [26] = target: kinases (Homo sapiens, UniProt P15735); details: PHKG2 FRET-Z-Lyte SP; Test Conc(μM):ATP Conc(μM) 1:10
kinases [27] = target: kinases (Homo sapiens, UniProt P49761); details: CLK3 FRET-Z-Lyte SP; Test Conc(μM):ATP Conc(μM) 1:150
kinases [28] = target: kinases (Homo sapiens, UniProt Q15835); details: GRK1 FRET-Lantha SP; Test Conc(μM) 1
kinases [29] = target: kinases (Homo sapiens, UniProt P51451); details: BLK FRET-Z-Lyte SP; Test Conc(μM):ATP Conc(μM) 1:25
[30] = LRRK2 FL FRET-Adapta SP, Test Conc(μM):ATP Conc(μM) 1:50
[31] = LRRK2 Hu Phos FRET-Adapta SP, Test Conc(μM):ATP Conc(μM) 1:75
[32] = MAPK8 (JNK1) Cascade Z-Lyte SP, Test Conc(μM):ATP Conc(μM) 1:100
[33] = MAPK8 (JNK1) FRET-Lantha SP, Test Conc(μM) 1

Chain of kinases (Homo sapiens, UniProt P45983) (P45983 whole entry): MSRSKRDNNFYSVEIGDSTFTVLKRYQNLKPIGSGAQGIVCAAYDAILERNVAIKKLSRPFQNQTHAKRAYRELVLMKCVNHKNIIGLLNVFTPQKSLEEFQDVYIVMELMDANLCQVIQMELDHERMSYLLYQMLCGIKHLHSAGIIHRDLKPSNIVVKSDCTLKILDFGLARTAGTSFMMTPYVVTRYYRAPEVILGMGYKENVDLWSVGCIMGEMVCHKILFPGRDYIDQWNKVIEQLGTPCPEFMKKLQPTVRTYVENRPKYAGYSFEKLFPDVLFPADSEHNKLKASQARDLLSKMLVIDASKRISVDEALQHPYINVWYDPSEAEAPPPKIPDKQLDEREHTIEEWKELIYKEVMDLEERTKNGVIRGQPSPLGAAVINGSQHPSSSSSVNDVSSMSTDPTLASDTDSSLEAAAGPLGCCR
Chain of kinases (Homo sapiens, UniProt Q5S007) (Q5S007 whole entry): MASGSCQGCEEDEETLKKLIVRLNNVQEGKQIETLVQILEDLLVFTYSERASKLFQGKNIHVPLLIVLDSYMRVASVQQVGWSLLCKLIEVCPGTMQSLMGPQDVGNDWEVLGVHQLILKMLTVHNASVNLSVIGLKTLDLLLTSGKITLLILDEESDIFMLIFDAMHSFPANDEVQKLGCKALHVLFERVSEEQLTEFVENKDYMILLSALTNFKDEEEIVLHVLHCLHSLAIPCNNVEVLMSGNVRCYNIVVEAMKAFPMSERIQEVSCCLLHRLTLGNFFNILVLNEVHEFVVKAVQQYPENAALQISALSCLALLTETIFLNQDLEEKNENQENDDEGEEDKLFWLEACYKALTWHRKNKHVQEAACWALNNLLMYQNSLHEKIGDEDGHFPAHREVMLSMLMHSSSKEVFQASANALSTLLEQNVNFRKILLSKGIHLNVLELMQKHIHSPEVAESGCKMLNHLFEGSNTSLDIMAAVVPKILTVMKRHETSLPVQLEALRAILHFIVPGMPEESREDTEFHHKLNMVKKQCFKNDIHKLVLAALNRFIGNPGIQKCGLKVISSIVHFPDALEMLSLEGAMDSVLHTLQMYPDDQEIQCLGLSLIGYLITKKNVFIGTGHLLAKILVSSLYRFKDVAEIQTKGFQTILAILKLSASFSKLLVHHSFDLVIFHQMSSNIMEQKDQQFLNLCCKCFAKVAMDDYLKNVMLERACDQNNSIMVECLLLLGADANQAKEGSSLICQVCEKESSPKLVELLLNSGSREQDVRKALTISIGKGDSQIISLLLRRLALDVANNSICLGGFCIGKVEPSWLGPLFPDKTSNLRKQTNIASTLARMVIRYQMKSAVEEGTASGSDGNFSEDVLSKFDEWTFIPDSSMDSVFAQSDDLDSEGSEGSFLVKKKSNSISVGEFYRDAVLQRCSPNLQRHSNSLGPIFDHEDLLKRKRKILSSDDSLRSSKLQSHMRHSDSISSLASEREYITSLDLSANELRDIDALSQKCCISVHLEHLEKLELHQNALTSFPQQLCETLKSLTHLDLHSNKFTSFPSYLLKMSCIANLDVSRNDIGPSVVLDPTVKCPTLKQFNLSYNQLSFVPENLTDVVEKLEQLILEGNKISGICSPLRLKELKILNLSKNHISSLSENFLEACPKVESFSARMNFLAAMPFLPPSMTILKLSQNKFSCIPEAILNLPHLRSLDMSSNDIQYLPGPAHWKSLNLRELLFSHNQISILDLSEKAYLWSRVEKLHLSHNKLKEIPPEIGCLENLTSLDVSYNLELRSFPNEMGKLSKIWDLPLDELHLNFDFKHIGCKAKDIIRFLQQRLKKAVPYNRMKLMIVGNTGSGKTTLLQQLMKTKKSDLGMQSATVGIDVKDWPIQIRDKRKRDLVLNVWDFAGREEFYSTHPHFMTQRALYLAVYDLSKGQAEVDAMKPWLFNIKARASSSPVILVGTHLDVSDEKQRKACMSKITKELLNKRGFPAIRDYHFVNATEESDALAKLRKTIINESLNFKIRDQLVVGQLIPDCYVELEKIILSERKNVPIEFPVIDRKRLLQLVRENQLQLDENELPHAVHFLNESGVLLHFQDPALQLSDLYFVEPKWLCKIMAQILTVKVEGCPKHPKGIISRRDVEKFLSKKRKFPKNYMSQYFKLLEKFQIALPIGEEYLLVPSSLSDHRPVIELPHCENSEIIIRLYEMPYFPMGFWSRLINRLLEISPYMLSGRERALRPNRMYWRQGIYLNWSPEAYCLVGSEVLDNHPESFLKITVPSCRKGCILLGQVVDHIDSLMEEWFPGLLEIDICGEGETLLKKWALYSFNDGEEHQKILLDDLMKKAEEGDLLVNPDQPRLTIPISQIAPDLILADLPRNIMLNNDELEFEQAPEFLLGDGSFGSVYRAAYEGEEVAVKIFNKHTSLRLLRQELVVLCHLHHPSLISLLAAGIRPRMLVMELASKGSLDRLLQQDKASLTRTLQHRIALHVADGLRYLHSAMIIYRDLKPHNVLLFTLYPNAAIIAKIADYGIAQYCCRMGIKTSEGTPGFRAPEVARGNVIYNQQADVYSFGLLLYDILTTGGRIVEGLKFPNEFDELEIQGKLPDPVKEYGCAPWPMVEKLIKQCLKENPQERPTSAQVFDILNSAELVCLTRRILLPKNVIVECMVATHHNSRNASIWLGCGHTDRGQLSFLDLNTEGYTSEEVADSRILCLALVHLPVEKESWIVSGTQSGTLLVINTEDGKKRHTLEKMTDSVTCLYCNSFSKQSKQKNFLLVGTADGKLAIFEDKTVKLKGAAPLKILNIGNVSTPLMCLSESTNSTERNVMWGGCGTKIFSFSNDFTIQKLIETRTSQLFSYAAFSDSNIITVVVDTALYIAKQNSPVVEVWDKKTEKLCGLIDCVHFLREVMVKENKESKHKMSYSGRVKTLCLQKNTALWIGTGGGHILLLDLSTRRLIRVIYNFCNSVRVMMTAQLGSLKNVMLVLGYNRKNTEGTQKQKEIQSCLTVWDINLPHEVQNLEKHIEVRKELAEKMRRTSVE
Chain of kinases (Homo sapiens, UniProt Q15349) (Q15349 whole entry): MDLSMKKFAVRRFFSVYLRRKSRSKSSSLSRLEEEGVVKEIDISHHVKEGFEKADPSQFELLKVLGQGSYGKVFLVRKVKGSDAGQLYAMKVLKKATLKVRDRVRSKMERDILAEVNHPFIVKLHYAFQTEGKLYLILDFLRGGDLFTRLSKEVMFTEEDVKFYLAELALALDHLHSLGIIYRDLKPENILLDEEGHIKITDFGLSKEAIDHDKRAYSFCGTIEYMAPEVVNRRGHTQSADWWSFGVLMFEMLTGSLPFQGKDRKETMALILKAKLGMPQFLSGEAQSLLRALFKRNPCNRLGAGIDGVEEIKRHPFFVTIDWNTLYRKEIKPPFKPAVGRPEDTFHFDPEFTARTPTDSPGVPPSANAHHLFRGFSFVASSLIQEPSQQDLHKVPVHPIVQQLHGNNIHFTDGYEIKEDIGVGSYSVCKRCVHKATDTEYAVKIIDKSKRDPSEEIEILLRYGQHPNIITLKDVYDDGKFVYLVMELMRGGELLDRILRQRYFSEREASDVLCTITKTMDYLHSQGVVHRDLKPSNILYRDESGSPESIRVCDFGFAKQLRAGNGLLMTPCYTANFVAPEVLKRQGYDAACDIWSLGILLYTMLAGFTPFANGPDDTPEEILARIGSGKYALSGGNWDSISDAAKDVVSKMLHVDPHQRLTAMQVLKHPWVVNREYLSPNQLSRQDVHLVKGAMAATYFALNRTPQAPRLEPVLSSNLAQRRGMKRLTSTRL
Chain of kinases (Homo sapiens, UniProt Q09013) (Q09013 whole entry): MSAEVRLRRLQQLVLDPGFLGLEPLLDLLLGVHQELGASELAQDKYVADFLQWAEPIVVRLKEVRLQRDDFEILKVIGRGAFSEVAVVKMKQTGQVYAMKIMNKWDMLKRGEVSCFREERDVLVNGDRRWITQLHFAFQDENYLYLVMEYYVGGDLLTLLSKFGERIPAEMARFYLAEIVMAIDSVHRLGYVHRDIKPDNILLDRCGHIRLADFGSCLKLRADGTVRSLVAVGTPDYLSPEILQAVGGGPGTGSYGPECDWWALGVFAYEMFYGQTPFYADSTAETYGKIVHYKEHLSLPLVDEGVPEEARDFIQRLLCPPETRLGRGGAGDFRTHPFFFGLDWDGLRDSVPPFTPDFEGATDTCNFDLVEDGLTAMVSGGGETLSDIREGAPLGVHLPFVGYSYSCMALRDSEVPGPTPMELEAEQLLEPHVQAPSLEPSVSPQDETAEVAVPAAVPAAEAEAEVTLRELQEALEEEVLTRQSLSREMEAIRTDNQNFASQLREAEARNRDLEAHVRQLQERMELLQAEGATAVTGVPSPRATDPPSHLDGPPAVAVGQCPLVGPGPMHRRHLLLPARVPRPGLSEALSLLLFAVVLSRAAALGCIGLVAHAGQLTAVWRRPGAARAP
Chain of kinases (Homo sapiens, UniProt P15735) (P15735 whole entry): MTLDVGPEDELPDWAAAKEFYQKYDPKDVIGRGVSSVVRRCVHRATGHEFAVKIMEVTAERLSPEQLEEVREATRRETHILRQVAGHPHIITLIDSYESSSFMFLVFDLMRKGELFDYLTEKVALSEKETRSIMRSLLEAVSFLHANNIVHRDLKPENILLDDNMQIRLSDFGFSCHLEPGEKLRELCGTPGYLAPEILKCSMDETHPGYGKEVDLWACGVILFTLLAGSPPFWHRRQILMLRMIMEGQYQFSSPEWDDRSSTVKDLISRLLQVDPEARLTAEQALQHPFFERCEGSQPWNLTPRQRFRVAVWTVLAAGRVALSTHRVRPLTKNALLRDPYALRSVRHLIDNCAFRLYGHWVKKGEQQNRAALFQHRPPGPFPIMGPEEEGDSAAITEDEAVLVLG
Chain of kinases (Homo sapiens, UniProt Q9P1W9) (Q9P1W9 whole entry): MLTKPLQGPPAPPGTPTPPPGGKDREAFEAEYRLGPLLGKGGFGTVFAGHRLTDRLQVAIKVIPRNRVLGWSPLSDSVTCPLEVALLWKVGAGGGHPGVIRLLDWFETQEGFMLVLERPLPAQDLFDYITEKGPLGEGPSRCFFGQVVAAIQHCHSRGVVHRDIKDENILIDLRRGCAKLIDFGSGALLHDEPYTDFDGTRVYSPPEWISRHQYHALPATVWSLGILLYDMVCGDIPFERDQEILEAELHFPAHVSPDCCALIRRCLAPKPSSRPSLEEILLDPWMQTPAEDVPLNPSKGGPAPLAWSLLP

Row | SMILES | Mean Inhib (%) (kinases [1]) | Mean Inhib (%) (kinases [2]) | Mean Inhib (%) (kinases [3]) | Mean Inhib (%) (kinases [4]) | Mean Inhib (%) (kinases [5]) | Mean Inhib (%) (kinases [6]) | Mean Inhib (%) (kinases [7]) | Mean Inhib (%) (kinases [8]) | Mean Inhib (%) (kinases [9]) | Mean Inhib (%) (kinases [10]) | Mean Inhib (%) (kinases [11]) | Mean Inhib (%) (kinases [12]) | Mean Inhib (%) (kinases [13]) | Mean Inhib (%) (kinases [14]) | Mean Inhib (%) (kinases [15]) | Mean Inhib (%) (kinases [16]) | Mean Inhib (%) (kinases [17]) | Mean Inhib (%) (kinases [18]) | Mean Inhib (%) (kinases [19]; [30]) | Mean Inhib (%) (kinases [19]; [31]) | also measured
1 | Cc1ccc(NC(=O)c2ccnc(N3CCOCC3)c2)cc1Nc1ccnc(N2CC(C)OC(C)C2)n1 (centres unmarked) [compound 3] | 0.9 | −3.5 | 27.7 | 3.3 | −1.6 | 11.5 | −9.5 | 8.6 | −5.8 | 5.7 | 1.3 | −0.3 | 6.5 | −2.5 | 1.6 | 22.8 | −3.1 | 16.7 | 0.5 | 13.2 | Mean Inhib (%) (kinases [20]): 9.0%; Mean Inhib (%) (kinases [21]): 4.7%; Mean Inhib (%) (kinases [22]): −3.2%; Mean Inhib (%) (kinases [23]): 7.1%; Mean Inhib (%) (kinases [24]; [32]): 6.5%; Mean Inhib (%) (kinases [24]; [33]): −6.1%; Mean Inhib (%) (kinases [25]): 14.5%; Mean Inhib (%) (kinases [26]): −2.1%; Mean Inhib (%) (kinases [27]): 2.0%; Mean Inhib (%) (kinases [28]): −3.1%; Mean Inhib (%) (kinases [29]): 3.0%
2 | Cc1cc(Oc2ccnc(Nc3ccc(S(N)(=O)=O)cc3)c2)c(-c2ccccn2)nc1C [compound 65] | −4.9 | 88.8 | −7.3 | −6.2 | 3.4 | 2.7 | −7.5 | 5.9 | 0.4 | −1.4 | 1.2 | 3.7 | 10.4 | −0.8 | 0.1 | 31.0 | 8.7 | −9.9 | 3.0 | 6.1 | Mean Inhib (%) (kinases [20]): 0.2%; Mean Inhib (%) (kinases [21]): 4.6%; Mean Inhib (%) (kinases [22]): −0.8%; Mean Inhib (%) (kinases [23]): 0.5%; Mean Inhib (%) (kinases [24]; [32]): 16.9%; Mean Inhib (%) (kinases [24]; [33]): 7.0%; Mean Inhib (%) (kinases [25]): 12.5%; Mean Inhib (%) (kinases [26]): 4.0%; Mean Inhib (%) (kinases [27]): 5.1%; Mean Inhib (%) (kinases [28]): 3.7%; Mean Inhib (%) (kinases [29]): 9.7%

— patent US20220187282A1, “CARDIOMYOCYTE PROLIFERATION” (The Council of the Queensland Institute of Medical Research, priority 2019, published 2022)
